Test results published in US3996359A, “Novel stereoisomeric component A of stereoisomeric mixtures of 2'-unsymmetrical 16,17-methylenedioxy steroid 21-acylates, compositions thereof, and method of treating therewith” (AB Bofors, priority 1972, dated 1976).

Test system: rats subjected to adrenalectomy (granuloma around implanted cotton wads)
Assay: granulom test (cotton-pellet test) on rats subjected to adrenalectomy: granuloma growth, thymus weight, body weight increase
Assay type: in vivo, rat (Sprague-Dawley)
Details: for Dose required to obtain 50% inhibition of Granuloma growth: Table 3, adrenalectomized young male Sprague-Dawley rats, topical in implanted cotton wads, day 8; for Dose required to obtain 25% inhibition of Body weight Increase / Dose required to obtain 50% inhibition of Thymus weight: 11520 min
Source text: In the following this active stereoisomeric component will always be designated B. As regards the steroids referred to in connection with the present invention the stereoisomeric mixture as well as the individual stereoisomeric components A and B have been investigated with regard to antiinflammatory activity in granulom test on rats subjected to adrenalectomy. The experimental procedure used corresponds largely to that described by G. Engelhardt: Arzneimittel-Forschung, 13, p. 588, 1963. According to this procedure the test substances are applied topically in the implanted cottom wads. It is thereby possible to study the local antiinflammatory effect in granulomas and also systemic effects in the form of retrogression of thymus and inhibition of bodyweight growth.
Young male rats of the Sprague-Dawley strain weighing about 110-130 g were subjected to adrenalectomy under ether narcosis. Two sterilized cottom wads of each about 6 mg were implanted simultaneously subcutaneously on the lateral side of the spinal. After awakening the animals were stored 5 per cage and were supplied with normal food and 1% sodium chloride solution as drinking water. On the eighth test day the animals were sacrificed by ether narcosis. The granuloma formed around the cotton wads were carefully recovered and thymus and body weights were measured. The two granuloma from each animal were dried over night at 80° C and weighed. After subtraction of the initial weight of the cotton wads the weight increase was used as a measure of the granulom growth.
The test substances were used dissolved in ethyl acetate. Under aseptic conditions 0.05 ml of said solutions were injected into each of the cotton wads, whereafter the solvent was allowed to evaporate in the desiccator. Normally 3 concentrations of each test substance with the standard doses 3.3, 30 and 270 γ/animal were investigated. Each test group normally comprised 10 rats. The cotton wads of the control group were injected with only ethyl acetate, but were in other respects treated in the same way. When considering the effects of the test substances the average values of granulom growth, thymus weight and body weight increase day 0-8 were measured in each group in absolute figures and in % of the corresponding figure of the control group. Dose-response curves were drafted and used for estimating the doses giving 50 % reduction of granulom growth and of thymus weight and 25 % decrease of body weight increase.
The following Table 4 discloses the results of the cotton-pellet test hereinbefore described, giving in addition figures for the therapeutic ratios, that is, the ratios of the ED50 for thymus weight inhibition divided by the ED50 for granuloma formation inhibition, and the ED25 for body weight increase inhibition over the ED50 for granuloma formation inhibition. As will be recognized, the higher the number for the therapeutic ratio, the more favorable the therapeutic ratio. […] As will be noted for the table, the therapeutic ratio for thymus over granuloma for the Component A esters is 4.2, 7.1, 4.5, 2.6, 2.2, 1.7, 2.5 and 1.7 times as good as it is for the corresponding Component B ester isomer, whereas the therapeutic ratio for the Component A ester isomer as far as body weight is granuloma 2.7, 3.3, 9.8, 6.4, 2.3, 2.8, 3.3 and 2.8 times as favorable as for the corresponding Component B ester isomer.

[1] = Table 4, ED25 body weight increase inhibition over ED50 granuloma formation inhibition
[2] = Table 4, ED50 thymus weight inhibition divided by ED50 granuloma formation inhibition

Row | SMILES | Dose required to obtain 50% inhibition of Granuloma growth | Dose required to obtain 25% inhibition of Body weight Increase (rat, in vivo) | Dose required to obtain 50% inhibition of Thymus weight (rat, in vivo) | ED25 body weight increase inhibition (rat, in vivo) [µg/animal] | ED50 thymus weight inhibition (rat, in vivo) [µg/animal] | Therapeutic ratio body weight/granuloma (rat, in vivo) | Therapeutic ratio thymus/granuloma (rat, in vivo) | decrease of body weight growth at the dose giving 50% inhibition of granulom growth (rat, in vivo) | decrease of thymus weight at the dose giving 50% inhibition of granulom growth (rat, in vivo) | Therapeutic ratio body weight/granuloma [1] | Therapeutic ratio thymus/granuloma [2]
1 | CCCCC1OC2CC3C4CCC5=CC(=O)C=CC5(C)C4(F)C(O)CC3(C)C2(C(=O)CO)O1 (mixture of isomers) [4 A+B] | < 3 γ/animal | 170 γ/animal | 70 γ/animal |  |  |  |  |  |  |  | 
2 | CCCCC(=O)OCC(=O)[C@@]12OC(CCC)O[C@@H]1C[C@H]1[C@@H]3CCC4=CC(=O)C=C[C@]4(C)[C@@]3(F)[C@@H](O)C[C@@]12C (single isomer, unassigned) [22 A] | < 3 γ/animal | 33 γ/animal | 90 γ/animal | 33 | 90 | > 11.0 | > 30.0 |  |  |  | 
3 | CCC1OC2CC3C4CCC5=CC(=O)C=CC5(C)C4(F)C(O)CC3(C)C2(C(=O)CO)O1 (mixture of isomers) [2 A+B] | 35 γ/animal | 140 γ/animal | 100 γ/animal |  |  |  |  |  |  |  | 
4 | CC1O[C@@H]2C[C@H]3[C@@H]4CCC5=CC(=O)C=C[C@]5(C)[C@@]4(F)[C@@H](O)C[C@]3(C)[C@]2(C(=O)CO)O1 (single isomer, unassigned) [1 A] | 270 γ/animal | 60 γ/animal | 115 γ/animal |  |  |  |  |  |  |  | 
5 | CCCCCC1O[C@@H]2C[C@H]3[C@@H]4CCC5=CC(=O)C=C[C@]5(C)[C@H]4[C@@H](O)C[C@]3(C)[C@]2(C(=O)CO)O1 (single isomer, unassigned) [13 A] | 8 γ/animal | 100 γ/animal | > 270 γ/animal |  |  |  |  |  |  |  | 
6 | CCCC1O[C@@H]2C[C@H]3[C@@H]4CCC5=CC(=O)C=C[C@]5(C)[C@H]4[C@@H](O)C[C@]3(C)[C@]2(C(=O)COC(=O)c2cc3ccccc3o2)O1 (single isomer, unassigned) [28 B] |  |  |  | 35 | 60 | > 11.7 | > 20.0 |  |  |  | 
7 | CC1(C)O[C@@H]2C[C@H]3[C@@H]4CCC5=CC(=O)C=C[C@]5(C)[C@@]4(F)[C@@H](O)C[C@]3(C)[C@]2(C(=O)CO)O1 [Triamcinolone acetonide, reference compound] |  | 100 γ/animal | 70 γ/animal |  |  |  |  | heavy decrease | heavy decrease |  | 
8 | CCCCCC1O[C@@H]2C[C@H]3[C@@H]4CCC5=CC(=O)C=C[C@]5(C)[C@@]4(F)[C@@H](O)C[C@]3(C)[C@]2(C(=O)CO)O1 (single isomer, unassigned) [5 A] | 30 γ/animal | > 270 γ/animal | 90 γ/animal |  |  |  |  |  |  |  | 
9 | CCCCC(=O)OCC(=O)[C@@]12OC(CCC)O[C@@H]1C[C@H]1[C@@H]3CCC4=CC(=O)C=C[C@]4(C)[C@@]3(F)[C@@H](O)C[C@@]12C (single isomer, unassigned) [22 B] | < 3 γ/animal | 5 γ/animal | 35 γ/animal | 3 | 35 | > 1.7 | > 11.7 |  |  |  | 
10 | CC1O[C@@H]2C[C@H]3[C@@H]4C[C@H](F)C5=CC(=O)C=C[C@]5(C)[C@@]4(F)[C@@H](O)C[C@]3(C)[C@]2(C(=O)COC(=O)c2cc3ccccc3o2)O1 (stereo partly shown) [23 A] |  |  |  | 10 | 10 |  |  |  |  | > 3.3 | > 3.3
11 | CCCCC(=O)OCC(=O)[C@@]12OC(C)O[C@@H]1C[C@H]1[C@@H]3CCC4=CC(=O)C=C[C@]4(C)[C@@]3(F)[C@@H](O)C[C@@]12C (single isomer, unassigned) [18 B] | < 3 γ/animal | 10 γ/animal | 10 γ/animal | 10 | 10 | > 3.3 | > 3.3 |  |  |  | 
12 | CC1O[C@@H]2C[C@H]3[C@@H]4C[C@H](F)C5=CC(=O)C=C[C@]5(C)[C@@]4(F)[C@@H](O)C[C@]3(C)[C@]2(C(=O)COC(=O)c2cc3ccccc3o2)O1 (stereo partly shown) [23 B] |  |  |  | 3 | 4 |  |  |  |  | > 1.0 | > 1.3
13 | CCCC1O[C@@H]2C[C@H]3[C@@H]4CCC5=CC(=O)C=C[C@]5(C)[C@@]4(F)[C@@H](O)C[C@]3(C)[C@]2(C(=O)COC(=O)c2cc3ccccc3o2)O1 (single isomer, unassigned) [20 B] | < 3 γ/animal | 5 γ/animal | 20 γ/animal | 5 | 20 | > 1.7 | > 6.7 |  |  |  | 
14 | CCCC1OC2CC3C4CC(F)C5=CC(=O)C=CC5(C)C4(F)C(O)CC3(C)C2(C(=O)COC(=O)c2cc3ccccc3o2)O1 (mixture of isomers) [25 A+B] | < 3 γ/animal | 10 γ/animal | 10 γ/animal |  |  |  |  |  |  |  | 
15 | CCCC1O[C@@H]2C[C@H]3[C@@H]4CCC5=CC(=O)C=C[C@]5(C)[C@H]4[C@@H](O)C[C@]3(C)[C@]2(C(=O)COC(C)=O)O1 (single isomer, unassigned) [27 B] | < 3 γ/animal | 35 γ/animal | 60 γ/animal | 35 | 60 | > 11.7 | > 20.0 |  |  |  | 
16 | CCC1O[C@@H]2C[C@H]3[C@@H]4CCC5=CC(=O)C=C[C@]5(C)[C@@]4(F)[C@@H](O)C[C@]3(C)[C@]2(C(=O)CO)O1 (single isomer, unassigned) [2 A] | 25 γ/animal | 90 γ/animal | 130 γ/animal |  |  |  |  |  |  |  | 
17 | CCCC1O[C@@H]2C[C@H]3[C@@H]4CCC5=CC(=O)C=C[C@]5(C)[C@@]4(F)[C@@H](O)C[C@]3(C)[C@]2(C(=O)COC(=O)c2cc3ccccc3o2)O1 (single isomer, unassigned) [20 A] | < 3 γ/animal | 50 γ/animal | 90 γ/animal | 50 | 90 | > 16.7 | > 30.0 |  |  |  | 
